According to US8075777B2, “Process for the separation of diastereomers” (E. I. du Pont de Nemours and Company, priority 2007, dated 2011):

What was measured:
[1] = NRTL activity model correlation of LLE data (binary interaction parameters, equation 5); assay type: physicochemical; design: key to τ12^(0) / τ21^(0): constant term in τij = τij(0) + τij(1)/T + τij(2)T (NRTL, α=0.2); details: non-deuterated, α=0.2
Excerpt: Observed LLE data have been correlated with the NRTL (non-random two liquid) solution model as described in Shiflett, M. B. and Yokozeki, A. (Vapor-liquid-liquid equilibria of pentafluoroethane and ionic liquid [bmim][PF6] mixtures studied with the volumetric method, J. Phys. Chem. B (2006) 110:14436-14443); and in Shiflett, M. B. and Yokozeki, A. (Vapor-liquid-liquid equilibria of hydrofluorocarbons+1-butyl-3-methylimidazolium hexafluorophosphate, J. Chem. & Eng. Data (2006) 51:1931-1939).
The binary activity coefficients of the NRTL are given by:
[formula] where G12≡exp(−ατ12), and G21≡exp(−ατ21) (3)
α=0.2 (assumed to be a constant of 0.2 in this work).
xi=mole fraction of the i-th species.
The temperature-dependent binary interaction parameter (τij) is modeled here by a three term empirical equation: τ12=τ12^(0)+τ12^(1)/T+τ12^(2)T, and τ21=τ21^(0)+τ21^(1)/T+τ21^(2)T (5)
The binary LLE (L1 for liquid 1 and L2 for liquid 2) are mathematically described by the following equilibrium condition: γi^L1xi^L1=γi^L2xi^L2 (6) Thus, the two adjustable parameters τ12 and τ21 at a given T can be determined from one set of LLE experimental (volumetric method) data, using eq 6 (two nonlinearly coupled equations). We obtained several sets of such LLE data and can obtain τ12 and τ21 at respective T. Then, the empirical parameters in eq 5 were determined and are shown in Example 5, Table 5, where results for only the non-deuterated isomers with ionic liquids are given, since results for the deuterated isomer cases are similar to those in Table 5.

[2] = Single stage liquid-liquid extraction of HFC-4310mee with [bmim][BF4] in separatory funnel, GC analysis of upper phase; assay type: physicochemical; details: 7.2 g HFC-4310mee feed (88.8/11.2 vol % threo/erythro) mixed with 15.1 g [bmim][BF4]
Description: To evaluate this characterization, a sample of HFC-4310mee was analyzed by gas chromatography and found to contain 88.8 vol % HFC-4310mee-threo and 11.2 vol % HFC-4310mee-erythro diastereomers. A 7.2 gram sample of HFC-4310mee (i.e., the feed) was mixed with 15.1 grams of [bmim][BF4] (i.e., the extractant) in a separator funnel and vigorously mixed and then allowed to separate into two phases. […] [BF4]. The lower phase was separated from the top phase by opening the stopcock valve on the bottom of the separatory funnel and decanting off the lower phase. The remaining upper phase was analyzed by gas chromatography. The upper phase contained 91.8 vol % HFC-4310mee-threo and 8.2 vol % HFC-4310mee-erythro, which is in accordance with the ternary diagrams.

[3] = Cloud-point measurements / LCST of HFC-4310mee threo isomers plus ionic liquids; assay type: physicochemical
Excerpt: Starting at ambient temperature of about 293 K, where two liquid phases existed, the temperature was lowered (20 K/h) with manual mixing in a constant temperature bath (Tamson Instruments, TV4000LT, Zoetermeer, Netherlands) until only a single phase existed. The bath temperature was calibrated with the NIST traceable SPRT mentioned previously. Achieving a single phase with the mixtures prepared using [emim][BF4] involved going to a lower temperature than was required to achieve a single phase with the mixtures prepared using [bmim][PF6] and [bmim][BF4]. In addition, the rate of decrease in temperature had to be decreased from 20 to 5 K/h with vigorous manual mixing to prevent the ionic-liquid rich phase from solidifying. Sufficient time with vigorous mixing allowed for mixtures containing 70 mole % and higher threo-H and threo-D isomers with [emim][BF4] to become a single phase at a temperature of 240 K. Once the samples were single phase the temperature was slowly raised 2 K/h until a cloud layer became visible inside the tube. The temperature was recorded for each sample when the cloud layer formed and the temperature was slowly raised until all samples had reached the cloud point.

[4] = assay type: physicochemical
Excerpt: The separation of the erythro or threo diastereomer from a mixture thereof in HFC-4310mee involves one of the diastereomers being soluble to a greater extent in at least one ionic liquid than the other diastereomer is. In order to study this type of behavior, liquid-liquid equilibrium (LLE) and cloud point measurements on samples of HFC-4310mee were made as described in Examples 1 to 4. […]
Initially, the samples were mixed at room temperature (293.2 K) by vigorously shaking the sample containers. […] The water bath was stirred with an agitator (Arrow Engineering Co., Inc. model 1750, Hillside, N.J.) and the temperature measured with a thermocouple (Fluke Corporation, model 5211 thermometer, Everett, Wash.). The Fluke thermometer was calibrated using a standard platinum resistance thermometer (SPRT model 5699, Hart Scientific, American Fork, Utah, range 73 to 933 K) and readout (Blackstack model 1560 with SPRT module 2560). […]
The water bath temperature was initially set at about 283 K, and the sample containers were rocked back and forth. […] The mixing and measurement procedure was repeated each day and the heights plotted as a function of time until no further change in the heights was detected. […]

Row | Structure (SMILES) | τ12^(0) ([1]; isomer (1)/[bmim][BF4] (2)) | τ12^(1)/K ([1]; isomer (1)/[bmim][BF4] (2)) | τ12^(2)/K^−1 ([1]; isomer (1)/[bmim][BF4] (2)) | τ21^(0) ([1]; isomer (1)/[bmim][BF4] (2)) | τ21^(1)/K ([1]; isomer (1)/[bmim][BF4] (2)) | τ21^(2)/K^−1 ([1]; isomer (1)/[bmim][BF4] (2)) | τ12^(0) ([1]; isomer (1)/[bmim][PF6] (2)) | τ12^(1)/K ([1]; isomer (1)/[bmim][PF6] (2)) | τ12^(2)/K^−1 ([1]; isomer (1)/[bmim][PF6] (2)) | τ21^(0) ([1]; isomer (1)/[bmim][PF6] (2)) | τ21^(1)/K ([1]; isomer (1)/[bmim][PF6] (2)) | τ21^(2)/K^−1 ([1]; isomer (1)/[bmim][PF6] (2)) | τ12^(0) ([1]; isomer (1)/[emim][BF4] (2)) | τ12^(1)/K ([1]; isomer (1)/[emim][BF4] (2)) | τ12^(2)/K^−1 ([1]; isomer (1)/[emim][BF4] (2)) | τ21^(0) ([1]; isomer (1)/[emim][BF4] (2)) | τ21^(1)/K ([1]; isomer (1)/[emim][BF4] (2)) | τ21^(2)/K^−1 ([1]; isomer (1)/[emim][BF4] (2)) | Content in upper phase (extract) by gas chromatography [2] | Solubility in the present ionic liquids compared with the erythro-D and erythro-H isomers [4] | further results
1 | F[C@H]([C@H](F)C(F)(F)C(F)(F)F)C(F)(F)F [HFC-4310mee Erythro-H, erythro-2,3-dihydrodecafluoropentanes] | −1.1221 | 1492.7 K | 0 K^−1 | 18.7323 | −3018.8 K | −0.02457 K^−1 | −5.2583 | 2803.2 K | 0 K^−1 | 2.97 | −584.1 K | 0 K^−1 | 25.6965 | −3500.0 K | −0.03688 K^−1 | 72.2927 | −10850.0 K | −0.1125 K^−1 | 8.2 vol % | – | –
2 | [2H]C(F)(C(F)(F)F)C([2H])(F)C(F)(F)C(F)(F)F (stereo not drawn) [HFC-4310mee Threo-D] | – | – | – | – | – | – | – | – | – | – | – | – | – | – | – | – | – | – | – | more soluble | Cloud point T/K ([3]; [bmim][BF4], 59.9 ± 0.5 mol % HFC): 311 ± 1 K; Cloud point T/K ([3]; [bmim][BF4], 69.4 ± 0.5 mol % HFC): 310 ± 1 K; Cloud point T/K ([3]; [bmim][BF4], 80.1 ± 0.5 mol % HFC): 309 ± 1 K; Cloud point T/K ([3]; [bmim][BF4], 89.3 ± 0.5 mol % HFC): 310 ± 1 K; Cloud point T/K ([3]; [bmim][PF6], 40.0 ± 0.5 mol % HFC): 272 ± 1 K; Cloud point T/K ([3]; [bmim][PF6], 50.0 ± 0.5 mol % HFC): 271 ± 1 K; Cloud point T/K ([3]; [bmim][PF6], 59.7 ± 0.5 mol % HFC): 271 ± 1 K; Cloud point T/K ([3]; [bmim][PF6], 69.8 ± 0.5 mol % HFC): 267 ± 1 K; Cloud point T/K ([3]; [bmim][PF6], 79.7 ± 0.5 mol % HFC): 267 ± 1 K; Cloud point T/K ([3]; [bmim][PF6], 88.5 ± 0.5 mol % HFC): 272 ± 1 K; Cloud point T/K ([3]; [emim][BF4], 69.6 ± 0.5 mol % HFC): 252 ± 3 K; Cloud point T/K ([3]; [emim][BF4], 80.1 ± 0.5 mol % HFC): 261 ± 2 K; Cloud point T/K ([3]; [emim][BF4], 89.8 ± 0.5 mol % HFC): 273 ± 1 K
3 | F[C@H]([C@@H](F)C(F)(F)C(F)(F)F)C(F)(F)F [HFC-4310mee Threo-H, threo-2,3-dihydrodecafluoropentanes] | 91.1575 | −1463.8 K | −0.1288 K^−1 | 81.6624 | −1506.8 K | −0.1092 K^−1 | 145.421 | −22306.3 K | −0.2229 K^−1 | −37.7767 | 5492.1 K | 0.06485 K^−1 | 50.3746 | −7994.5 K | −0.06965 K^−1 | −7.2227 | 1138.3 K | 0.0158 K^−1 | 91.8 vol % | more soluble | LCST (lower critical solution temperature) ([3]; [bmim][BF4] system, at about 75 mole %): 307-309 K; Cloud point T/K ([3]; [bmim][BF4], 50.0 ± 0.5 mol % HFC): 311 ± 1 K; Cloud point T/K ([3]; [bmim][BF4], 59.1 ± 0.5 mol % HFC): 309 ± 1 K; Cloud point T/K ([3]; [bmim][BF4], 69.8 ± 0.5 mol % HFC): 308 ± 1 K; Cloud point T/K ([3]; [bmim][BF4], 79.5 ± 0.5 mol % HFC): 307 ± 1 K; Cloud point T/K ([3]; [bmim][BF4], 91.0 ± 0.5 mol % HFC): 308 ± 1 K; LCST (lower critical solution temperature) ([3]; [bmim][PF6] system, at about 70 (threo-isomer) mole %): 265-267 K; Cloud point T/K ([3]; [bmim][PF6], 40.6 ± 0.5 mol % HFC): 270 ± 1 K; Cloud point T/K ([3]; [bmim][PF6], 50.8 ± 0.5 mol % HFC): 269 ± 1 K; Cloud point T/K ([3]; [bmim][PF6], 60.4 ± 0.5 mol % HFC): 268 ± 1 K; Cloud point T/K ([3]; [bmim][PF6], 69.7 ± 0.5 mol % HFC): 265 ± 1 K; Cloud point T/K ([3]; [bmim][PF6], 80.0 ± 0.5 mol % HFC): 264 ± 1 K; Cloud point T/K ([3]; [bmim][PF6], 90.0 ± 0.5 mol % HFC): 276 ± 1 K; LCST (lower critical solution temperature) ([3]; [emim][BF4] system, at near 50 mole %): about 250 K; Cloud point T/K ([3]; [emim][BF4], 69.8 ± 0.5 mol % HFC): 250 ± 3 K; Cloud point T/K ([3]; [emim][BF4], 80.0 ± 0.5 mol % HFC): 260 ± 2 K; Cloud point T/K ([3]; [emim][BF4], 90.1 ± 0.5 mol % HFC): 268 ± 1 K
